Test results reported in publication PMC4506092, “Utilizing Chemical Genomics to Identify Cytochrome b as a Novel Drug Target for Chagas Disease” (PLoS Pathogens, 2015).

Molecular target: T. cruzi cytochrome bc1 (complex III), wild-type (Trypanosoma cruzi, UniProt Q9TED7)
Experiment: T. cruzi complex III activity (decylubiquinol / cytochrome c reaction), wild-type
Type: biochemical
Conditions: digitonin-permeabilized epimastigotes
Protocol: T. cruzi epimastigotes ([…], density of 5 × 10^7 parasites / mL) were harvested by centrifugation (800 × g for 5 minutes at 4°C) and resuspended at 10 mg / mL of protein in buffer A containing 0.1 mg digitonin / mg protein. The parasites were then incubated with the detergent for 10 minutes at 26°C. The pellet fraction was collected by centrifugation (13,000 × g for 5 min at 4°C) and immediately used in the complex III assay.
Complex III activity was monitored using a coupled decylubiquinol / cytochrome c reaction. Decylubiquinone was first reduced to decylubiquinol as described. […] The reduction of cytochrome c was monitored at 550 nm using the SpectraMax Plus384 absorbance microplate reader. Blank samples containing all components excluding decylubiquinol were processed in parallel and absorbance values were subtracted from sample absorbance values to specifically measure […] reduction of cytochrome c. All sample and blank wells were prepared in triplicate. For IC50 determination, the slope of the linear portion of the corrected respiration trace was determined, and normalized to the slope obtained for 0.2% DMSO condition.

Sequence of T. cruzi cytochrome bc1 (complex III), wild-type (Q4DU59 entry or part of it): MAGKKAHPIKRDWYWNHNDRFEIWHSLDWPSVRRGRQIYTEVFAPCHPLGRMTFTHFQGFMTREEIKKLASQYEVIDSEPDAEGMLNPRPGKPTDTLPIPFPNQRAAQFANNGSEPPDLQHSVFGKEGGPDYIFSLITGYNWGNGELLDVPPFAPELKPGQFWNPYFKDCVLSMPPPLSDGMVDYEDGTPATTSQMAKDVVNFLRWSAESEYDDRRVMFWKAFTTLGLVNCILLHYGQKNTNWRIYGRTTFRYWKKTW
Sequence of T. cruzi cytochrome bc1 (complex III), wild-type (Q9TED7 entry or part of it): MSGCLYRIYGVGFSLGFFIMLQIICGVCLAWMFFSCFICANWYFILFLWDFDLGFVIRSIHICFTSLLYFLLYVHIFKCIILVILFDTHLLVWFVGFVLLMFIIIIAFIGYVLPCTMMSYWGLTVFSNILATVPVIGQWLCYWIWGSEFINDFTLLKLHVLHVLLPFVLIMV

CCc1c(C)c(C#N)c2nc3ccccc3n2c1O [GNF7686]
IC50: 400 nM
